How the values were obtained:
[1] = species on record: Rattus norvegicus; experiment: […] and the effective dose required for the elicitation of the complete psychotomimetic spectrum was determined; f =Not effective at 50 mg; assay type: functional, organism-based
[2] = species on record: Rattus norvegicus; experiment: Duration of time in hours, after ingestion at which central effects begin to decline was determined.; assay type: functional
[3] = […] and the effective dose required for the elicitation of the complete psychotomimetic spectrum was determined.; assay type: functional
[4] = species on record: Rattus norvegicus; experiment: Onset time in minutes, between ingestion and the first noticeable symptoms was determined; assay type: functional

| Compound | Effective dose [1] | Duration [2] | Effective dose [3] | Onset time [4] |
| --- | --- | --- | --- | --- |
| COc1cc2[nH]cc(CCN(C)C(C)C)c2cc1OC | Not effective at 50mg |  |  |  |
| COc1cccc2[nH]cc(CCN(C)C(C)C)c12 |  | 2 h | 30 mg/kg | 45 min |
| COc1cccc2c(CCN(C)C(C)C)c[nH]c12 | Not effective at 50mg |  |  |  |
| COc1ccc2c(CCN(C)C(C)C)c[nH]c2c1 | Not effective at 50mg |  |  |  |
| COc1ccc2[nH]cc(CCN(C)C(C)C)c2c1 |  | 3 h | 5 mg/kg | 9 min |
| CC(C)N(C)CCc1c[nH]c2ccccc12 |  | 3 h | 25 mg/kg | 40 min |
| CC(C)N(C)CCc1c[nH]c2cc3ooc3cc12 | Not effective at 50mg |  |  |  |
| CC(C)N(C)CCc1c[nH]c2cccc(O)c12 |  | 6 h | 10 mg/kg | 20 min |

— ChEMBL document CHEMBL1123092, “Psychotomimetic N-methyl-N-isopropyltryptamines. Effects of variation of aromatic oxygen substituents” (1985)
